In PubChem BioAssay (NCI):
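Briefly, cells in 96-well plates were exposed to five compound concentrations for 48 h, and endpoints were estimated by linear interpolation. At the GI50, growth is halved. TGI is the concentration that stops growth completely.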

Legend:
Assay in all cases: growth of human tumour cells (NCI), 48 h
HOP-92 NSCLC = system: HOP-92 NSCLC
NCI-H23 lung = system: NCI-H23 lung
NCI/ADR-RES ovarian = system: NCI/ADR-RES ovarian
SF-295 CNS = system: SF-295 CNS
SF-539 CNS = system: SF-539 CNS
SN12C renal = system: SN12C renal
SW-620 colon = system: SW-620 colon
MALME-3M melanoma = system: MALME-3M melanoma
SK-OV-3 ovarian = system: SK-OV-3 ovarian
SNB-75 CNS = system: SNB-75 CNS

Row | Structure (SMILES) | GI50 (HOP-92 NSCLC) | TGI (HOP-92 NSCLC) | GI50 (NCI-H23 lung) | TGI (NCI-H23 lung) | GI50 (NCI/ADR-RES ovarian) | TGI (NCI/ADR-RES ovarian) | GI50 (SF-295 CNS) | TGI (SF-295 CNS) | GI50 (SF-539 CNS) | TGI (SF-539 CNS) | GI50 (SN12C renal) | TGI (SN12C renal) | GI50 (SW-620 colon) | TGI (SW-620 colon) | TGI (MALME-3M melanoma) | TGI (SK-OV-3 ovarian) | TGI (SNB-75 CNS) | GI50 (SK-OV-3 ovarian) | GI50 (SNB-75 CNS) | GI50 (MALME-3M melanoma)
1 | NS(=O)(=O)c1ccc(-n2nc(-c3ccc(Cl)cc3)cc2-c2cc(O)ccc2O)cc1 | 16 µM | 38.9 µM | 18.3 µM | 34.6 µM | 20.9 µM | 47.6 µM | 17.6 µM | 33.5 µM | 25.4 µM | 46.7 µM | 8.11 µM | 20.6 µM | 23.4 µM | 89.4 µM |  |  |  |  |  | 
2 | COc1ccc(/C=N/N=C(\N)NO)cc1O |  | 64.2 µM |  | > 100 µM |  |  |  |  |  | 94.4 µM |  | > 100 µM |  | > 100 µM | 63.6 µM | > 100 µM |  |  |  | 
3 | O/N=C1/C(=C/c2ccc3c(c2)OCO3)CCCC1C(NO)c1ccc2c(c1)OCO2 (stereo not given) |  |  |  | 72.5 µM |  |  |  |  |  | 32.4 µM |  | 40.9 µM |  | > 100 µM | 48.2 µM | 94 µM | 80.1 µM |  |  | 
4 | N=C1C(c2nc3ccccc3s2)=C(O)CN1c1ccc(F)c(Cl)c1 | 12 µM | 37.5 µM | 34.8 µM | > 100 µM | 26.9 µM | 80.6 µM | 18.8 µM | > 100 µM | 8.36 µM | 30.9 µM | 34.6 µM | > 100 µM | 58.7 µM | > 100 µM |  | > 100 µM | 51.4 µM | 25.3 µM | 13 µM | 
5 | COC(=O)CC1C[C@H](C#N)N(C(=O)c2ccccc2)C[C@@H]1CC[N+](=O)[O-] (stereo not given in full) |  | > 100 µM |  | > 100 µM |  |  |  | > 100 µM |  | > 100 µM |  | > 100 µM |  | > 100 µM | > 100 µM | > 100 µM | > 100 µM |  |  | 
6 | O=C(O)CCCSC(=O)Nc1ccc(N=Nc2ccccc2)cc1 |  |  |  | > 100 µM |  |  |  | > 100 µM |  | > 100 µM |  | > 100 µM |  | > 100 µM |  |  |  |  |  | 
7 | CCOC(=O)/C(C=Nc1ccc(-c2nc3ccccc3[nH]2)cc1)=C(/C)O | 19.4 µM | > 50 µM | 15 µM | 31 µM | 13 µM | 32.2 µM | 16.4 µM | > 50 µM |  |  | 14.5 µM | > 50 µM | 11.7 µM | 22.7 µM |  | > 50 µM |  | 22.2 µM |  | 
8 | CN1CCC2(CC1)ONC1=NCCN12 |  |  | 34.5 µM | > 100 µM | 19.6 µM | 70.3 µM | 44.5 µM | > 100 µM | 47.5 µM | > 100 µM | 15.8 µM | 40.2 µM | 51.8 µM | > 100 µM | 73.7 µM | > 100 µM | > 100 µM | 42 µM | 66.8 µM | 20.1 µM
9 | O=C(COc1ccc(Cl)cc1)N1N=C(c2ccc(Cl)cc2)CC1(O)c1ccccc1 (stereo not given) |  | 44.1 µM |  | 33.9 µM |  |  |  | 82 µM |  | > 59.4 µM |  | 11.4 µM |  | > 69.3 µM | 47.4 µM | > 63.6 µM | > 72.7 µM |  |  | 
10 | CC1=C(C(=O)Nc2cc(=O)n(C)c(=O)n2C)C(c2ccco2)C(C(=O)Nc2cc(=O)n(C)c(=O)n2C)=C(C)N1 |  | > 100 µM |  | > 100 µM |  |  |  | > 100 µM |  | > 100 µM |  | > 100 µM |  | > 100 µM | > 100 µM |  | > 100 µM |  |  | 
11 | CCN(CC)c1c(C(=O)/C=C/c2ccc(Cl)cc2)c(-c2ccccc2)nn(C)c1=O |  | 4.33 µM |  | 3.1 µM |  |  |  | 3.38 µM |  |  |  | 4.59 µM |  | 4.6 µM | 4.35 µM | 18.7 µM | 7.5 µM |  |  | 
12 | COc1ccc(/C=C/C(=O)c2cc(OC)c(OC)c(OC)c2)cc1OCc1cn(Cc2ccc(F)cc2)nn1 |  |  | 18.9 µM | 64.2 µM | 2.99 µM | > 100 µM |  |  | 2.49 µM | 7.83 µM | 3.12 µM | > 100 µM | 3.16 µM | > 100 µM | > 100 µM |  |  |  |  | 72.5 µM
13 | O=C(O)C1=C(O)C(C(=O)O)C23CCCCCCCCCCC12C(C(=O)O)C(O)=C3C(=O)O (stereo not given) |  | > 100 µM |  | > 100 µM |  |  |  | > 100 µM |  | > 100 µM |  | > 100 µM |  | > 100 µM | > 100 µM | > 100 µM |  |  |  | 
14 | O=C(NCCCCNc1cccccc1=O)OCc1ccccc1 |  |  |  | > 100 µM |  |  |  | > 100 µM |  |  |  | > 100 µM |  | > 100 µM | > 100 µM | > 100 µM | > 100 µM |  |  | 
15 | Cc1cc(CC(=O)NCCO)n(CCO)c(=O)c1 |  | > 100 µM |  | > 100 µM |  |  |  | > 100 µM |  | > 100 µM |  | > 100 µM |  | > 100 µM | > 100 µM |  | > 100 µM |  |  | 
16 | C=CCNC(=O)N(CCCCC(NC(C)=O)C(=O)NCc1ccccc1)Cc1ccccc1 (stereo not given) |  | > 100 µM |  | > 100 µM |  |  |  | > 100 µM |  | > 100 µM |  | > 100 µM |  | > 100 µM | > 100 µM | > 100 µM | > 100 µM |  |  | 
17 | CCc1ccccc1NC(=O)C1=C(C)NC(C)=C(C(=O)Nc2ccccc2CC)C1c1ccccc1Cl |  | > 100 µM |  | > 100 µM |  |  |  | > 100 µM |  | > 100 µM |  | > 100 µM |  | > 100 µM | > 100 µM | > 100 µM | > 100 µM |  |  | 
18 | COC1=C(N)C(=O)c2nc(C)ccc2C1=O |  | 22.1 µM |  | 2.95 µM |  |  |  | 3.18 µM |  | 3.35 µM |  | 3.27 µM |  | 3.36 µM | 3.18 µM | 38.4 µM | 3.74 µM |  |  | 
19 | C[C@H](NC(=O)[C@@H](C)N)[C@H](Oc1ccc2c(cnn2-c2ccc(F)cc2)c1)c1ccc2c(c1)OCCO2 |  |  | 3.93 µM | 15.6 µM | 2.69 µM | 13.5 µM | 1.95 µM | 3.9 µM | 1.65 µM | 3.54 µM | 1.29 µM | 4.27 µM | 1.71 µM | 3.36 µM | 3.09 µM | 13.5 µM | 10.8 µM | 0.208 µM | 3.15 µM | 1.5 µM
20 | O=c1[nH]nnc2c1ncn2C1OC(CO)C(O)C1O (stereo not given) |  |  | 14.5 µM | > 100 µM | 7.74 µM | > 100 µM | 1.65 µM | 47 µM | 14.5 µM | > 100 µM | 38.3 µM | > 100 µM | 10.6 µM | > 100 µM | > 100 µM | > 100 µM | > 100 µM | 0.881 µM | 0.99 µM | 7.25 µM
